# Read-outs that look alike come from different tables or passages of the source. Bridge positions count the residues as written; N and C are the ends. Square brackets hold non-standard residues; d marks the D form. Peptide text beside a SMILES is read from it. * marks the point of attachment. Dab(CH2SO3H) = N[C@@H](CCNCS(=O)(=O)O)C(=O)O; Heptanoyl(6-Me) = CC(C)CCCCC(=O)*; Sulfomethyl = O=S(=O)(O)C*; X1 = CC[C@H](C)CCCCC(=O)*; dDab = NCC[C@@H](N)C(=O)O; Heptanoyl = CCCCCCC(=O)*; Octanoyl = CCCCCCCC(=O)*; Orn = NCCC[C@H](N)C(=O)O; dDap = NC[C@@H](N)C(=O)O; Dab = NCC[C@H](N)C(=O)O; Dap = NC[C@H](N)C(=O)O
# Experiments:
# Type in all cases: cell-based
# [1] = test system: Pseudomonas aeruginosa ATCC 27853
# How it was run: (§1)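 Broth microdilution MIC per CLSI in MH broth, compounds 2-fold diluted to final 64–0.03 mg/L. Inoculum (2-4) × 10^5 CFU/mL final, from 0.5 McFarland suspensions of 18-24 h colonies. Plates sealed and incubated 35-37°C for 16-20 h.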
# [2] = test system: Acinetobacter baumannii ABA19-1
# How it was run: as §1
# [3] = test system: Acinetobacter baumannii NCTC 13304 (OXA-27)
# How it was run: as §1
# [4] = test system: Escherichia coli ATCC BAA-2523
# How it was run: as §1
# [5] = test system: Klebsiella pneumoniae KPN+19-15
# How it was run: as §1
# [6] = test system: Escherichia coli ATCC BAA-2340 (KPC)
# How it was run: as §1
# [7] = test system: Pseudomonas aeruginosa PAE19-3
# How it was run: as §1
# [8] = test system: Klebsiella pneumoniae ATCC BAA-1705 (KPC)
# How it was run: as §1
# [9] = Nephrotoxicity assay: in vitro cytotoxicity of HK-2 cells by CCK-8 assay; details: human, HK-2 cells (human renal), 72 h incubation with drug-containing medium
# How it was run: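 HK-2 human renal cells in RPMI-1640 with 10% FBS were exposed to compounds at final 12.5–500 µg/mL for 72 h, then CCK-8 for 3 h and OD450 read. Viability was normalised to drug-free wells; IC50 came from logarithmic regression over three repeats, with polymyxin B as positive drug.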
compound,measurement,setting,value
"CC(C)CCCCC(=O)N[C@@H](CCN)C(=O)N[C@H](C(=O)N[C@@H](CN)C(=O)N[C@H]1CCNC(=O)[C@H]([C@@H](C)O)NC(=O)[C@H](CCN)NC(=O)[C@H](CCNCS(=O)(=O)O)NC(=O)[C@H]([C@@H](C)O)NC(=O)[C@@H](Cc2ccccc2)NC(=O)[C@H](CCN)NC1=O)[C@@H](C)O [Compound 119, 6-methylheptanoyl-Dab-Thr-Dap-ring(4-10)[Dab-Dab-D-Phe-Thr-Dab(CH2SO3H)-Dab-Thr]] ({Heptanoyl(6-Me)}-[Dab]T[Dap][Dab][Dab][dF]T[Dab(CH2SO3H)][Dab]T; lactam 4-C)",MIC,[1]; ATCC 27853,0.25 µg/mL
same,MIC,[2]; ABA19-1,0.25 µg/mL
same,MIC,[3]; NCTC 13304,0.06 µg/mL
same,MIC,[4]; ATCC BAA-2523,0.06 µg/mL
same,MIC,[5]; KPN+19-15,0.125 µg/mL
same,MIC,[6]; ATCC BAA-2340,0.06 µg/mL
same,MIC,[7]; PAE19-3,0.5 µg/mL
same,MIC,[8]; ATCC BAA-1705,0.125 µg/mL
same,IC50 at 72 h,[9],> 500 µg/mL
"CC[C@H](C)CCCCC(=O)N[C@@H](CCN)C(=O)N[C@H](C(=O)N[C@H](CO)C(=O)N[C@H]1CCNC(=O)[C@H]([C@@H](C)O)NC(=O)[C@H](CN)NC(=O)[C@H](CCN)NC(=O)[C@H]([C@@H](C)O)NC(=O)[C@@H](Cc2ccccc2)NC(=O)[C@H](CCN)NC1=O)[C@@H](C)O [Compound 81, (S)-6-methyloctanoyl-Dab-Thr-D-Ser-ring(4-10)[Dab-Dab-D-Phe-Thr-Dab-Dap-Thr]] (X1-[Dab]T[dS][Dab][Dab][dF]T[Dab][Dap]T; lactam 4-C)",MIC,[1]; ATCC 27853,>64 µg/mL
same,MIC,[2]; ABA19-1,0.06 µg/mL
same,MIC,[3]; NCTC 13304,≤0.03 µg/mL
same,MIC,[4]; ATCC BAA-2523,0.03 µg/mL
same,MIC,[5]; KPN+19-15,0.5 µg/mL
same,MIC,[6]; ATCC BAA-2340,0.03 µg/mL
same,MIC,[7]; PAE19-3,64 µg/mL
same,MIC,[8]; ATCC BAA-1705,0.25 µg/mL
same,IC50 at 72 h,[9],> 500 µg/mL
"CC[C@H](C)CCCCC(=O)N[C@@H](CCN)C(=O)N[C@H](C(=O)N[C@H](CO)C(=O)N[C@H]1CCNC(=O)[C@H]([C@@H](C)O)NC(=O)[C@H](CCN)NC(=O)[C@H](CCCN)NC(=O)[C@H]([C@@H](C)O)NC(=O)[C@@H](Cc2ccccc2)NC(=O)[C@H](CCN)NC1=O)[C@@H](C)O [Compound 76, (S)-6-methyloctanoyl-Dab-Thr-D-Ser-ring(4-10)[Dab-Dab-D-Phe-Thr-Orn-Dab-Thr]] (X1-[Dab]T[dS][Dab][Dab][dF]T[Orn][Dab]T; lactam 4-C)",MIC,[1]; ATCC 27853,>64 µg/mL
same,MIC,[2]; ABA19-1,0.06 µg/mL
same,MIC,[3]; NCTC 13304,≤0.03 µg/mL
same,MIC,[4]; ATCC BAA-2523,≤0.03 µg/mL
same,MIC,[5]; KPN+19-15,0.5 µg/mL
same,MIC,[6]; ATCC BAA-2340,≤0.03 µg/mL
same,MIC,[7]; PAE19-3,64 µg/mL
same,MIC,[8]; ATCC BAA-1705,0.25 µg/mL
same,IC50 at 72 h,[9],> 500 µg/mL
"CC(C)CCCCC(=O)N[C@@H](CCN)C(=O)N[C@H](C(=O)N[C@H](CO)C(=O)N[C@H]1CCNC(=O)[C@H]([C@@H](C)O)NC(=O)[C@H](CCN)NC(=O)[C@H](CCN)NC(=O)[C@H]([C@@H](C)O)NC(=O)[C@@H](Cc2ccccc2)NC(=O)[C@H](CN)NC1=O)[C@@H](C)O [Compound 62, 6-methylheptanoyl-Dab-Thr-D-Ser-ring(4-10)[Dab-Dap-D-Phe-Thr-Dab-Dab-Thr]] ({Heptanoyl(6-Me)}-[Dab]T[dS][Dab][Dap][dF]T[Dab][Dab]T; lactam 4-C)",MIC,[1]; ATCC 27853,64 µg/mL
same,MIC,[2]; ABA19-1,0.25 µg/mL
same,MIC,[3]; NCTC 13304,0.25 µg/mL
same,MIC,[4]; ATCC BAA-2523,0.06 µg/mL
same,MIC,[5]; KPN+19-15,0.5 µg/mL
same,MIC,[6]; ATCC BAA-2340,0.06 µg/mL
same,MIC,[7]; PAE19-3,4 µg/mL
same,MIC,[8]; ATCC BAA-1705,0.25 µg/mL
same,IC50 at 72 h,[9],> 500 µg/mL
"CCCCCCC(=O)N[C@@H](CCN)C(=O)N[C@H](C(=O)N[C@@H](CN)C(=O)N[C@H]1CCNC(=O)[C@H]([C@@H](C)O)NC(=O)[C@H](CCN)NC(=O)[C@H](CCN)NC(=O)[C@H](CC(C)C)NC(=O)[C@@H](Cc2ccccc2)NC(=O)[C@H](CCN)NC1=O)[C@@H](C)O [Compound 39, Heptanoyl-Dab-Thr-Dap-ring(4-10)[Dab-Dab-D-Phe-Leu-Dab-Dab-Thr]] (Heptanoyl-[Dab]T[Dap][Dab][Dab][dF]L[Dab][Dab]T; lactam 4-C)",MIC,[1]; ATCC 27853,0.06 µg/mL
same,MIC,[2]; ABA19-1,0.03 µg/mL
same,MIC,[3]; NCTC 13304,0.03 µg/mL
same,MIC,[4]; ATCC BAA-2523,0.03 µg/mL
same,MIC,[5]; KPN+19-15,0.03 µg/mL
same,MIC,[6]; ATCC BAA-2340,0.03 µg/mL
same,MIC,[7]; PAE19-3,0.5 µg/mL
same,MIC,[8]; ATCC BAA-1705,0.03 µg/mL
same,IC50 at 72 h,[9],357 ± 8.1 µg/mL
"CCCCCCC(=O)N[C@@H](CCN)C(=O)N[C@H](C(=O)N[C@@H](CCCN)C(=O)N[C@H]1CCNC(=O)[C@H]([C@@H](C)O)NC(=O)[C@H](CCN)NC(=O)[C@H](CCN)NC(=O)[C@H](CC(C)C)NC(=O)[C@@H](Cc2ccccc2)NC(=O)[C@H](CCN)NC1=O)[C@@H](C)O [Compound 49, Heptanoyl-Dab-Thr-Orn-ring(4-10)[Dab-Dab-D-Phe-Leu-Dab-Dab-Thr]] (Heptanoyl-[Dab]T[Orn][Dab][Dab][dF]L[Dab][Dab]T; lactam 4-C)",MIC,[1]; ATCC 27853,0.03 µg/mL
same,MIC,[2]; ABA19-1,0.125 µg/mL
same,MIC,[3]; NCTC 13304,0.06 µg/mL
same,MIC,[4]; ATCC BAA-2523,0.03 µg/mL
same,MIC,[5]; KPN+19-15,0.03 µg/mL
same,MIC,[6]; ATCC BAA-2340,0.03 µg/mL
same,MIC,[7]; PAE19-3,0.5 µg/mL
same,MIC,[8]; ATCC BAA-1705,0.03 µg/mL
same,IC50 at 72 h,[9],367 ± 8.7 µg/mL
"CC(C)CCCCC(=O)N[C@@H](CCN)C(=O)N[C@H](C(=O)N[C@H](COCS(=O)(=O)O)C(=O)N[C@H]1CCNC(=O)[C@H]([C@@H](C)O)NC(=O)[C@H](CCN)NC(=O)[C@H](CCN)NC(=O)[C@H]([C@@H](C)O)NC(=O)[C@@H](Cc2ccccc2)NC(=O)[C@H](CCN)NC1=O)[C@@H](C)O [Compound 103, 6-methylheptanoyl-Dab-Thr-D-Ser(CH2SO3H)-ring(4-10)[Dab-Dab-D-Phe-Thr-Dab-Dab-Thr]] ({Heptanoyl(6-Me)}-[Dab]T[dS](Sulfomethyl)[Dab][Dab][dF]T[Dab][Dab]T; lactam 4-C)",MIC,[1]; ATCC 27853,0.25 µg/mL
same,MIC,[2]; ABA19-1,0.06 µg/mL
same,MIC,[3]; NCTC 13304,0.06 µg/mL
same,MIC,[4]; ATCC BAA-2523,0.03 µg/mL
same,MIC,[5]; KPN+19-15,0.125 µg/mL
same,MIC,[6]; ATCC BAA-2340,0.03 µg/mL
same,MIC,[7]; PAE19-3,0.25 µg/mL
same,MIC,[8]; ATCC BAA-1705,0.125 µg/mL
same,IC50 at 72 h,[9],> 500 µg/mL
"CCCCCCCC(=O)N[C@@H](CN)C(=O)N[C@H](C(=O)N[C@H](CCN)C(=O)N[C@H]1CCNC(=O)[C@H]([C@@H](C)O)NC(=O)[C@H](CCN)NC(=O)[C@H](CCN)NC(=O)[C@H](CC(C)C)NC(=O)[C@@H](CC(C)C)NC(=O)[C@H](CCN)NC1=O)[C@@H](C)O [Compound 98, Octanoyl-Dap-Thr-D-Dab-ring(4-10)[Dab-Dab-D-Leu-Leu-Dab-Dab-Thr]] (Octanoyl-[Dap]T[dDab][Dab][Dab][dL]L[Dab][Dab]T; lactam 4-C)",MIC,[1]; ATCC 27853,0.5 µg/mL
same,MIC,[2]; ABA19-1,0.03 µg/mL
same,MIC,[3]; NCTC 13304,0.03 µg/mL
same,MIC,[4]; ATCC BAA-2523,0.03 µg/mL
same,MIC,[5]; KPN+19-15,0.03 µg/mL
same,MIC,[6]; ATCC BAA-2340,0.03 µg/mL
same,MIC,[7]; PAE19-3,0.5 µg/mL
same,MIC,[8]; ATCC BAA-1705,0.03 µg/mL
same,IC50 at 72 h,[9],238 ± 9.9 µg/mL
"CC(C)CCCCC(=O)N[C@@H](CCN)C(=O)N[C@H](C(=O)N[C@H](CN)C(=O)N[C@H]1CCNC(=O)[C@H]([C@@H](C)O)NC(=O)[C@H](CCN)NC(=O)[C@H](CCN)NC(=O)[C@H]([C@@H](C)O)NC(=O)[C@H](Cc2ccccc2)NC(=O)[C@H](CCN)NC1=O)[C@@H](C)O [Compound 102, 6-methylheptanoyl-Dab-Thr-D-Dap-ring(4-10)[Dab-Dab-Phe-Thr-Dab-Dab-Thr]] ({Heptanoyl(6-Me)}-[Dab]T[dDap][Dab][Dab]FT[Dab][Dab]T; lactam 4-C)",MIC,[1]; Pseudomonas aeruginosa ATCC27853,>64 µg/mL
same,MIC,[2]; Acinetobacter baumannii ABA19-1,>64 µg/mL
same,MIC,[3]; Acinetobacter baumannii NCTC 13304 (OXA-27),>64 µg/mL
same,MIC,[4]; Escherichia coli ATCC BAA-2523,>64 µg/mL
same,MIC,[5]; Klebsiella pneumoniae KPN 19-15,>64 µg/mL
same,MIC,[6]; Escherichia coli ATCC BAA-2340 (KPC),>64 µg/mL
same,MIC,[7]; Pseudomonas aeruginosa PAE19-3,>64 µg/mL
same,MIC,[8]; Klebsiella pneumoniae ATCC BAA-1705 (KPC),>64 µg/mL
same,IC50 at 72 h,[9],> 500 µg/mL
"CC(C)CCCCC(=O)N[C@@H](CCN)C(=O)N[C@H](C(=O)N[C@H](CO)C(=O)N[C@H]1CCNC(=O)[C@H]([C@@H](C)O)NC(=O)[C@H](CCN)NC(=O)[C@H](CCN)NC(=O)[C@H]([C@@H](C)O)NC(=O)[C@@H](Cc2ccccc2)NC(=O)[C@H](CCN)NC1=O)[C@@H](C)OCS(=O)(=O)O [Compound 104, 6-methylheptanoyl-Dab-Thr(CH2SO3H)-D-Ser-ring(4-10)[Dab-Dab-D-Phe-Thr-Dab-Dab-Thr]] ({Heptanoyl(6-Me)}-[Dab]T(Sulfomethyl)[dS][Dab][Dab][dF]T[Dab][Dab]T; lactam 4-C)",MIC,[1]; ATCC 27853,0.25 µg/mL
same,MIC,[2]; ABA19-1,0.06 µg/mL
same,MIC,[3]; NCTC 13304,0.06 µg/mL
same,MIC,[4]; ATCC BAA-2523,0.03 µg/mL
same,MIC,[5]; KPN+19-15,0.125 µg/mL
same,MIC,[6]; ATCC BAA-2340,0.03 µg/mL
same,MIC,[7]; PAE19-3,0.25 µg/mL
same,MIC,[8]; ATCC BAA-1705,0.125 µg/mL
same,IC50 at 72 h,[9],> 500 µg/mL
